Source: US12162848B2, “Inhibitors of protein tyrosine phosphatase, compositions, and methods of use” (BRISTOL-MYERS SQUIBB COMPANY, priority 2022, dated 2024)

Legend:
[1] = molecular target: T1, PTPN2 enzyme (Homo sapiens, UniProt P17706); experiment: PhosphoSens PTPN2 biochemical assay; conditions: substrate AQT0264 20 μM, room temperature; read-out: PTPN2 BCHEM IC50
T1 sequence (P17706 1-415): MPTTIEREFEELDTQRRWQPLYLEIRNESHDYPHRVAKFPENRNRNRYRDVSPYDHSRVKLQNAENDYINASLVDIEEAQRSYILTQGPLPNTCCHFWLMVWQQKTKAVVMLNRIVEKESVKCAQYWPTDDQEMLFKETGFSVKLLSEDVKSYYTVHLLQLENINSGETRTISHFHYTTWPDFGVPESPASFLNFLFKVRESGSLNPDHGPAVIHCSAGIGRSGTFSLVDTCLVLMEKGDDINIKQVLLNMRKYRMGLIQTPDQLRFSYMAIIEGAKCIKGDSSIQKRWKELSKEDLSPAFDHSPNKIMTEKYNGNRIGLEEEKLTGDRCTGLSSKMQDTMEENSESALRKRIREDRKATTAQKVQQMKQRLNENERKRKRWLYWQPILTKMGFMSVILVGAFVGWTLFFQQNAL
Description: A PhosphoSens® kinase assay was performed as described by the vendor (AssayQuant Technologies, Marlborough, MA). Briefly, 1000×solutions of compounds were prepared in DMSO via serial dilution of the 10 mM DMSO stocks using 3-fold intervals in a 384-well reagent plate. 50 nL of the compound dilution series was then added to the corresponding wells of a 384-well assay plate. […] of 1.25×substrate (AQT0264) in 1× assay buffer (50 mM HEPES pH 7.5, 500 μM EGTA, […] MgCl2, 0.01% Brij-35, 1% Glycerol, 1 mM DTT, and 0.2 mg/mL BSA) was transferred to each well of the assay plate to achieve a final substrate concentration of 20 μM. Finally, […] of 5×PTPN2 enzyme stock was added to each well of the assay plate for a final enzyme concentration of […]. Reaction progress curves were collected by sampling fluorescence intensity at the excitation wavelength 360 nm (λex360) and emission wavelength 480 nm (λem480) every 71 seconds for one hour using a Synergy H4 plate reader (BioTek Instruments/Agilent Technologies, Winooski, VT) at room temperature.

[2] = tested on: phosphorylated STAT1 protein levels in B16-F10 cells; experiment: Phospho-STAT1 (Tyr701) HTRF assay in IFN-gamma treated B16-F10 cells; format: cell-based; conditions: mouse IFN-gamma 100 ng/mL, 1 hour, read-out: pSTAT1 HTRF B16 EC50
Description: B16-F10 cells (ATCC, Manassas, VA, #CRL-6475) were cultured in DMEM growth medium (ThermoFisher Scientific, Waltham, MA, #11995-040) supplemented with 10% heat inactivated FBS (ThermoFisher Scientific, #16140-071) and 1% pen/strep (ThermoFisher Scientific, #15140-122). The cells were seeded into a white opaque 384-well tissue culture treated microplate (PerkinElmer, Waltham, MA, #6007688) at a density of 10,000 cells/well in 20 uL total volume and incubated overnight at 37 C and 5% CO2. 30 nL of compounds dissolved in DMSO were then transferred from a source plate into target wells with the Echo650 acoustic liquid handler (Beckman Coulter, Indianapolis, IN). Negative control wells received 30 nL of DMSO only (0.15% final concentration). Plates were returned to the incubator for 1 hour and then cells treated with either 5 uL of growth medium or 5 uL of growth medium containing 500 ng/mL of recombinant mouse IFN-gamma protein (R&D Systems, Minneapolis, MN, #485-MI/CF, 100 ng/mL final concentration) using the Assist automated pipetting platform (INTEGRA Biosciences, Hudson, NH). Plates were incubated at 37 C for 1 hour and assayed for phosphorylated STAT1 protein levels with the phospho-STAT1 (Tyr701) HTRF kit (Cisbio, Bedford, MA, #63ADK026PEH) according to manufacturer's instructions.

[3] = tested on: B16-F10 cells; experiment: Cell proliferation assay (CellTiter-Glo) in IFN-gamma treated B16-F10 cells; format: cell-based; conditions: 120 h, mouse IFN-gamma 10 ng/mL, read-out: PTPN2 Prolif 5d B16F10 EC50
Description: B16-F10 cells (ATCC, Manassas, VA, #CRL-6475) were cultured in DMEM growth medium (ThermoFisher Scientific, Waltham, MA, #11995-040) supplemented with 10% heat inactivated FBS (ThermoFisher Scientific, #16140-071) and 1% pen/strep (ThermoFisher Scientific, #15140-122). The cells were seeded into two white opaque 384-well tissue culture treated microplates (PerkinElmer, Waltham, MA, #6007688) at a density of 100 cells/well in 20 uL total volume and incubated overnight at 37 C and 5% CO2. 30 nL of compounds dissolved in DMSO were then transferred from a source plate into target wells with the Echo650 acoustic liquid handler (Beckman Coulter, Indianapolis, IN). Negative control wells received 30 nL of DMSO only (0.15% final concentration). Plates were returned to the incubator for 1 hour and then cells treated with either 5 uL of growth medium or 5 uL of growth medium containing 50 ng/mL of recombinant mouse IFN-gamma protein (R&D Systems, Minneapolis, MN, #485-MI/CF, 10 ng/mL final concentration) using the Assist automated pipetting platform (INTEGRA Biosciences, Hudson, NH). Plates were incubated at 37 C for 4 days and cell proliferation assayed with the CellTiter-Glo reagent (Promega, Madison, WI, #G7573, 25 uL per well). […] Off-target compound mediated cytotoxicity was identified by checking for growth inhibition in the absence of IFNg.

Row | Compound | IC50 [1] [µM] | EC50 [2] [µM] | EC50 [3] [µM]
1 | CC(C)CCN1CCC(Nc2cc(O)c(N3CC(=O)NS3(=O)=O)c(F)c2)CC1 [EXAMPLE 89, 5-(2-fluoro-6-hydroxy-4-((1-isopentylpiperidin-4-yl)amino)phenyl)-1,2,5-thiadiazolidin-3-one 1,1-dioxide] | 0.757 | ≥ 15 | ≥ 15
2 | NC1CCN(c2cc(O)c(N3CC(=O)NS3(=O)=O)c(F)c2)CC1 [EXAMPLE 84, 5-(4-(4-aminopiperidin-1-yl)-2-fluoro-6-hydroxyphenyl)-1,2,5-thiadiazolidin-3-one 1,1-dioxide] | 0.745 | ≥ 15 | ≥ 15
3 | CN(C)c1ccc(-c2cc(O)c(N3CC(=O)NS3(=O)=O)c(F)c2)cn1 [EXAMPLE 29, 5-[4-[6-(dimethylamino)-3-pyridyl]-2-fluoro-6-hydroxy-phenyl]-1,1-dioxo-1,2,5-thiadiazolidin-3-one] | 0.09 | ≥ 15 | ≥ 15
4 | Cc1cc(OCC2CC2)cc(-c2cc(O)c(N3CC(=O)NS3(=O)=O)c(F)c2)c1 [EXAMPLE 21, 5-[4-[3-(cyclopropylmethoxy)-5-methyl-phenyl]-2-fluoro-6-hydroxy-phenyl]-1,1-dioxo-1,2,5-thiadiazolidin-3-one] | 6.96 | ≥ 15 | ≥ 15
5 | COc1cncc(-c2cc(O)c(N3CC(=O)NS3(=O)=O)c(F)c2)c1 [EXAMPLE 28, 5-[2-fluoro-6-hydroxy-4-(5-methoxy-3-pyridyl)phenyl]-1,1-dioxo-1,2,5-thiadiazolidin-3-one] | 0.089 | ≥ 15 | 7.83
6 | CC1(C)CCC[C@H](NCc2cc(O)c(N3CC(=O)NS3(=O)=O)c(F)c2)C1 [EXAMPLE 66, (S)-5-(4-(((3,3-dimethylcyclohexyl)amino)methyl)-2-fluoro-6-hydroxyphenyl)-1,2,5-thiadiazolidin-3-one 1,1-dioxide] | 0.042 | 0.782 | 0.772
7 | O=C(O)CC(=O)N1CCC[C@H](NCc2cc(O)c(N3CC(=O)NS3(=O)=O)c(F)c2)C1 [EXAMPLE 76, 3-[(3S)-3-[[3-fluoro-5-hydroxy-4-(1,1,4-trioxo-1,2,5-thiadiazolidin-2-yl)phenyl]methylamino]-1-piperidyl]-3-oxo-propanoic acid] | 0.012 | ≥ 15 | ≥ 15
8 | CN1CCC(c2cc(O)c(N3CC(=O)NS3(=O)=O)c(F)c2)CC1 [EXAMPLE 4, 5-[2-fluoro-6-hydroxy-4-(1-methyl-4-piperidyl)phenyl]-1,1-dioxo-1,2,5-thiadiazolidin-3-one] | 0.807 | ≥ 15 | ≥ 15
9 | CC(=O)N1CCC[C@H](NCc2cc(O)c(N3CC(=O)NS3(=O)=O)c(F)c2)C1 [EXAMPLE 71, 5-[4-[[[(3S)-1-acetyl-3-piperidyl]amino]methyl]-2-fluoro-6-hydroxy-phenyl]-1,1-dioxo-1,2,5-thiadiazolidin-3-one] | 0.025 | 2.91 | 1.89
10 | CC(C)Cc1ccc(-c2cc(O)c(N3CC(=O)NS3(=O)=O)c(F)c2)cc1 [EXAMPLE 15, 5-[2-fluoro-6-hydroxy-4-(4-isobutylphenyl)phenyl]-1,1-dioxo-1,2,5-thiadiazolidin-3-one] | 2.48 | ≥ 15 | ≥ 15
11 | O=C1CN(c2c(O)cc(CN[C@@H]3CCCN(S(=O)(=O)C4CC4)C3)cc2F)S(=O)(=O)N1 [EXAMPLE 74, 5-[4-[[[(3R)-1-cyclopropylsulfonyl-3-piperidyl]amino]methyl]-2-fluoro-6-hydroxy-phenyl]-1,1-dioxo-1,2,5-thiadiazolidin-3-one] | 0.017 | 11 | 5.65
12 | O=C1CN(c2c(O)cc(-c3cccc(-c4ccccc4)c3)cc2F)S(=O)(=O)N1 [EXAMPLE 11, 5-[2-fluoro-6-hydroxy-4-(3-phenylphenyl)phenyl]-1,1-dioxo-1,2,5-thiadiazolidin-3-one] | 1.34 | ≥ 15 | ≥ 15
13 | CN(C)CCNC(=O)c1cc(O)c(N2CC(=O)NS2(=O)=O)c(F)c1 [EXAMPLE 91, N-(2-(dimethylamino)ethyl)-4-(1,1-dioxido-4-oxo-1,2,5-thiadiazolidin-2-yl)-3-fluoro-5-hydroxybenzamide] |  | ≥ 15 | ≥ 15

Now from value to compound:

Row | IC50 [1] [µM] | EC50 [2] [µM] | EC50 [3] [µM] | Compound
14 |  | ≥ 15 | ≥ 15 | O=C1CN(c2c(O)cc(C(=O)N[C@H]3CCCNC3)cc2F)S(=O)(=O)N1 [EXAMPLE 93, (S)-4-(1,1-dioxido-4-oxo-1,2,5-thiadiazolidin-2-yl)-3-fluoro-5-hydroxy-N-(piperidin-3-yl)benzamide]
15 |  | ≥ 15 | ≥ 15 | O=C1CN(c2c(O)ccc(C3CCNCC3)c2F)S(=O)(=O)N1 [EXAMPLE 105, 5-(2-fluoro-6-hydroxy-3-(piperidin-4-yl)phenyl)-1,2,5-thiadiazolidin-3-one 1,1-dioxide]
16 |  | ≥ 15 | ≥ 15 | CN1CCN(Cc2ccc(O)c(N3CC(=O)NS3(=O)=O)c2F)CC1 [EXAMPLE 103, 5-(2-fluoro-6-hydroxy-3-((4-methylpiperazin-1-yl)methyl)phenyl)-1,2,5-thiadiazolidin-3-one 1,1-dioxide]
17 |  | ≥ 15 | ≥ 15 | CN(C)[C@H]1CC[C@H](NC(=O)c2cc(O)c(N3CC(=O)NS3(=O)=O)c(F)c2)CC1 [EXAMPLE 96, N-((1r,4r)-4-(dimethylamino)cyclohexyl)-4-(1,1-dioxido-4-oxo-1,2,5-thiadiazolidin-2-yl)-3-fluoro-5-hydroxybenzamide]
18 |  | ≥ 15 | ≥ 15 | O=C1CN(c2c(O)cc(C(=O)NC3CCNCC3)cc2F)S(=O)(=O)N1 [EXAMPLE 92, 4-(1,1-dioxido-4-oxo-1,2,5-thiadiazolidin-2-yl)-3-fluoro-5-hydroxy-N-(piperidin-4-yl)benzamide]
19 |  | ≥ 15 | ≥ 15 | O=C1CN(c2c(O)ccc(CNC3CCOCC3)c2F)S(=O)(=O)N1 [EXAMPLE 101, 5-(2-fluoro-6-hydroxy-3-(((tetrahydro-2H-pyran-4-yl)amino)methyl)phenyl)-1,2,5-thiadiazolidin-3-one 1,1-dioxide]
20 |  | ≥ 15 | ≥ 15 | O=C1CN(c2c(O)ccc(CN3CCOCC3)c2F)S(=O)(=O)N1 [EXAMPLE 99, 5-(2-fluoro-6-hydroxy-3-(morpholinomethyl)phenyl)-1,2,5-thiadiazolidin-3-one 1,1-dioxide]
21 |  | ≥ 15 | ≥ 15 | O=C1CN(c2c(O)ccc(CNC3CCCCC3)c2F)S(=O)(=O)N1 [EXAMPLE 100, 5-(3-((cyclohexylamino)methyl)-2-fluoro-6-hydroxyphenyl)-1,2,5-thiadiazolidin-3-one 1,1-dioxide]
